Measurements published in US20230322769A1, “HETEROAROMATIC RING COMPOUND AS RET KINASE INHIBITOR, AND PREPARATION AND USE THEREOF” (JIANGSU CHIA TAI FENGHAI PHARMACEUTICAL CO., LTD., priority 2020, published 2023).
pIC50: −log10 of the molar value. Where two headings read alike, the source gives them in different places.

Tests used:
[1] = tested on: BA/F3 KIF5B-RET graft tumor; test: Mouse subcutaneous BA/F3 KIF5B-RET graft tumor model; assay type: in vivo
FGFR2 V564F = FGFR2 V564F (Homo sapiens (Human), UniProt P21802, V564F); test: HTRF kinase activity assay, FGFR2 V564F; assay type: biochemical
FGFR2 V564F, sequence (P21802 22-821 V564F): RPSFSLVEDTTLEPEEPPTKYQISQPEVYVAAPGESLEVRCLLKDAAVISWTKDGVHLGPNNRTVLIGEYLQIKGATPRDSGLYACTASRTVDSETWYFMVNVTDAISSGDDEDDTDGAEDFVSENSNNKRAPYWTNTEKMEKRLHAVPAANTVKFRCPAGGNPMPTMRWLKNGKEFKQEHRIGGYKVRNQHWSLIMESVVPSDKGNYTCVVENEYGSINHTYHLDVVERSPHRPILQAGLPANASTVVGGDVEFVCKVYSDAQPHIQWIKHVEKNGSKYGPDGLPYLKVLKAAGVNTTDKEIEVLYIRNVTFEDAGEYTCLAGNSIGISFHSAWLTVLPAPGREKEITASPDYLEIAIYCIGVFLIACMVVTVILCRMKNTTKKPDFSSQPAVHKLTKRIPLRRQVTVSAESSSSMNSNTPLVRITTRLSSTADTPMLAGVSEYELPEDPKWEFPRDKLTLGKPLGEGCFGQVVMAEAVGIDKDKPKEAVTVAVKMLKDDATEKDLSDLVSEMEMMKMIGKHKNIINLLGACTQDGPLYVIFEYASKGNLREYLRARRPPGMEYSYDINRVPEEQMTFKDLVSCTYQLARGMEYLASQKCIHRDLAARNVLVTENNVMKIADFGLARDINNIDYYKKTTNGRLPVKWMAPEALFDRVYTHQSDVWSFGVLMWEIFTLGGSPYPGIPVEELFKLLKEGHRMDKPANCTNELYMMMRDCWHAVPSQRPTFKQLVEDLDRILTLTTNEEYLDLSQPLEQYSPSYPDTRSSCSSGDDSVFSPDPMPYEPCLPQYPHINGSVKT
Method: (§1) Activity Experiment 8: Inhibition of FGFR Family Kinases' Activity by Prepared Compounds The compounds were assayed for activity IC50 against the FGFR family kinases. Related kinases were purchased from Carna and Signalchem. The activity assay method for the related kinases was established by homogeneous time-resolved fluorescence (HTRF), and the inhibitory activity of the compounds was determined. […] The kinases and compounds were pre-incubated for 10 min, and then ATP and substrate were added to start the reaction. All the enzyme-catalyzed reactions were carried out at 25° C. for 40 min. After the enzyme-catalyzed reactions were completed, 5 μL of TK antibody-cryptate and streptavidin-XL665 (the reaction concentration of streptavidin-XL665 was 62.5 nM) were added to the reaction mixtures, and the mixtures were incubated at 25° C. for another 60 min.

[2] = Tissue distribution assay in mice; assay type: in vivo, mouse; settings: for concentration at 4 h: male, mouse
Method: Male NVSG mice (weighing 20-25 g) were orally administered compound 94 and Loxo-292 at a dose of 30 mg/kg. The plasma and tissue samples of the liver, the brain and the lungs and the like of the animals are collected 4 h after administration. Blood plasma collection: The whole blood was collected at about 80-100 μL in EDTA-containing EP tubes and centrifuged at 4000 g for 5 min, and then the upper plasma was collected and stored at −80° C.
Tissue collection: After the animals were euthanized, the tissues were collected and snap-frozen in liquid nitrogen, 5 mL of homogenization solution (50% acetonitrile) was added per gram of tissue. The tissues were processed into homogenates in a tissue homogenizer and stored at −80° C. The concentration of compound in the plasma and tissue samples was quantified by liquid chromatography-tandem mass spectrometry (LC-MS/MS).

[3] = Pharmacokinetic assay in rats; assay type: in vivo, rat; settings: for CL / Vz / F / AUC(0-inf) / AUC(0-t) / Cmax / Tmax / clearance / Vd / half-life: SD male rats; for F: p.o. 5 mg/kg vs i.v. 1 mg/kg; for AUC(0-inf) / AUC(0-t) / Cmax / Tmax / clearance / Vd / half-life: rat, plasma; for Vd: read-out: Vz
Ba/F3 KIF5B-RET cells = test: Ba/F3 KIF5B-RET cell inhibition (CellTiter-Glo); assay type: cell-based; settings: Mus musculus, BaF3, 72 h
Method: (§2) Activity Experiment 3: Inhibition of Ba/F3 KIF5B-RET Cells by Prepared Compounds Ba/F3 KIF5B-RET, Ba/F3KIF5B-RET-V804M, Ba/F3 RET-M918T and Ba/F3 KIF5B-RET-G810R cells growing in log phase were harvested and counted using a […]. The cell viability was determined by the trypan blue exclusion method, and the cell viability was kept over 90%. The cell concentration was adjusted, and 90 μL of the cell suspension was added to a 96-well plate. The cells in the 96-well plate were incubated overnight at 37° C. with 5% CO2 and 95% humidity. Corresponding gradient concentrations of drug solutions (the maximum concentration was 1000 nM) were added to the 96-well plate inoculated with cells at 10 μL/well. Triplicate wells were set per drug concentration, and the final concentration of DMSO was 0.1%. The drug-treated cells in the 96-well plate were incubated for another 72 h at 37° C. with 5% CO2 and 95% humidity. After the drug treatment was completed, 100 μL of CellTiter-Glo reagent was added to each well. The cell plate was shaken on an orbital shaker for 5 min to lyse the cells and then let stand at room temperature for 20 min to stabilize the luminescence signals, and then the luminescence values were read. The data were analyzed using the GraphPad Prism 5.0 software. Dose-response curves were fit to the data using nonlinear S-curve regression, and IC50 was calculated from the curves.

Ba/F3 RET-M918T cells = test: Ba/F3 RET-M918T cell inhibition (CellTiter-Glo); assay type: cell-based; settings: Mus musculus, BaF3, 72 h
Method: as §2

FGFR3 V555M = FGFR3 V555M (Homo sapiens (Human), UniProt P22607, V555M); test: HTRF kinase activity assay, FGFR3 V555M; assay type: biochemical
FGFR3 V555M, sequence (P22607 23-806 V555M): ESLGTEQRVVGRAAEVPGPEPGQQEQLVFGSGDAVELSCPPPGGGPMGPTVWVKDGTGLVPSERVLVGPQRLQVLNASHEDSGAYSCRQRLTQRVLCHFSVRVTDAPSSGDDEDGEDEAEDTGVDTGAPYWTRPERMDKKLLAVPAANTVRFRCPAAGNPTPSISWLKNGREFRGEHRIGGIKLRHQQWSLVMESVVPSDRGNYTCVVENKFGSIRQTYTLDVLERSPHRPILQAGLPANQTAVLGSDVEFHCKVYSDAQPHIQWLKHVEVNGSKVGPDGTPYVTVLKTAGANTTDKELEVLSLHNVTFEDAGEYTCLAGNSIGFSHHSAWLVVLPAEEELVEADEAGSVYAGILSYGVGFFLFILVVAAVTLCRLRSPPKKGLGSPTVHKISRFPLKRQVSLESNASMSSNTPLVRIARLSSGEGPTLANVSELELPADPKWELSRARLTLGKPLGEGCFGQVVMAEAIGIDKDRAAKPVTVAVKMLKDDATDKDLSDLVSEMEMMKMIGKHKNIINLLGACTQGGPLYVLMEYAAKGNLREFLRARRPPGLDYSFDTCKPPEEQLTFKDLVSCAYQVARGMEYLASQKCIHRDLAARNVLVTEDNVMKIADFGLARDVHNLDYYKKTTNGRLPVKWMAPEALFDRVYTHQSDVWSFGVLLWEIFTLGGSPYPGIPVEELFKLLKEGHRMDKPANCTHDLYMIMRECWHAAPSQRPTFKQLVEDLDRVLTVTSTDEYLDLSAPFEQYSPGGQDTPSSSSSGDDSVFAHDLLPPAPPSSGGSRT
Method: (§3) Activity Experiment 8: Inhibition of FGFR Family Kinases' Activity by Prepared Compounds The compounds were assayed for activity IC50 against the FGFR family kinases. Related kinases were purchased from Carna and Signalchem.
(§4) The activity assay method for the related kinases was established by homogeneous time-resolved fluorescence (HTRF), and the inhibitory activity of the compounds was determined. A 5 μL reaction mixture was prepared, comprising 1× enzymatic buffer (Cisbio, HTRF KinEASE™-TK), 5 mM MgCl2, 1 mM DTT, 1 μM TK substrate-biotin (Cisbio, HTRF KinEASE™-TK), corresponding concentrations of ATP and related kinases, and gradient concentrations of compounds.
(§5) The kinases and compounds were pre-incubated for 10 min, and then ATP and substrate were added to start the reaction. All the enzyme-catalyzed reactions were carried out at 25° C. for 40 min. After the enzyme-catalyzed reactions were completed, 5 μL of TK antibody-cryptate and streptavidin-XL665 (the reaction concentration of streptavidin-XL665 was 62.5 nM) were added to the reaction mixtures, and the mixtures were incubated at 25° C. for another 60 min.

FGFR1 = FGFR1 (Homo sapiens (Human), UniProt P11362); test: HTRF kinase activity assay, FGFR1; assay type: biochemical
FGFR1, sequence (P11362 22-822): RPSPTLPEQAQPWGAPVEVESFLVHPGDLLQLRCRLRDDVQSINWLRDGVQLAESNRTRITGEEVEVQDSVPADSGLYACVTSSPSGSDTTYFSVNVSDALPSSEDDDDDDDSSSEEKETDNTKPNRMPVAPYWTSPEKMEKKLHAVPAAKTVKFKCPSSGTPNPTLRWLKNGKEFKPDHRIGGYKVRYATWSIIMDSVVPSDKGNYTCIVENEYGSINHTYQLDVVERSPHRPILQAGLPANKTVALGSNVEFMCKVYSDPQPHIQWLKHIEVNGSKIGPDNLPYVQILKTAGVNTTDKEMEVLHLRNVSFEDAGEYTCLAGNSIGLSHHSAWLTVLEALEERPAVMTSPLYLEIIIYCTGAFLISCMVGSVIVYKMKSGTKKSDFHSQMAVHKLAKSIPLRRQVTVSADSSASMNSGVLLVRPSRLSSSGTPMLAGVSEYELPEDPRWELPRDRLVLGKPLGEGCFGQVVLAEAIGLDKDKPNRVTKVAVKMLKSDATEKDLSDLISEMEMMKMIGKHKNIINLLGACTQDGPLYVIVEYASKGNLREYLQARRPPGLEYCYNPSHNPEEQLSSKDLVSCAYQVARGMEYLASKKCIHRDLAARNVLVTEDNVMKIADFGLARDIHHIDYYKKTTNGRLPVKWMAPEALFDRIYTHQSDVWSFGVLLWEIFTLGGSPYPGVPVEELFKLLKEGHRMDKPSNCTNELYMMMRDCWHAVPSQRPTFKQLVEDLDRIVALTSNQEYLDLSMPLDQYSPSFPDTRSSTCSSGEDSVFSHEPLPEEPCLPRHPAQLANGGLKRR
Method: as §3, §4, §5

FGFR2 = FGFR2 (Homo sapiens (Human), UniProt P21802); test: HTRF kinase activity assay, FGFR2; assay type: biochemical
FGFR2, sequence (P21802 22-821): as the sequence (P21802 22-821 V564F) above, with F543V counted along it
Method: as §1

[4] = tested on: Ba/F3 KIF5B-RET-G810R cells; test: Ba/F3 KIF5B-RET-G810R cell inhibition (CellTiter-Glo); assay type: cell-based; settings: Mus musculus, BaF3, 72 h, maximum concentration 1000 nM
Method: as §2

FGFR2 N549H = FGFR2 N549H (Homo sapiens (Human), UniProt P21802, N549H); test: HTRF kinase activity assay, FGFR2 N549H; assay type: biochemical
FGFR2 N549H, sequence (P21802 22-821 N549H): as the sequence (P21802 22-821 V564F) above, with N528H, F543V counted along it
Method: as §1

FGFR2 K641R = FGFR2 K641R (Homo sapiens (Human), UniProt P21802, K641R); test: HTRF kinase activity assay, FGFR2 K641R; assay type: biochemical
FGFR2 K641R, sequence (P21802 22-821 K641R): as the sequence (P21802 22-821 V564F) above, with F543V, K620R counted along it
Method: as §1

FGFR1 V561M = FGFR1 V561M (Homo sapiens (Human), UniProt P11362, V561M); test: HTRF kinase activity assay, FGFR1 V561M; assay type: biochemical
FGFR1 V561M, sequence (P11362 22-822 V561M): as the sequence (P11362 22-822) above, with V540M counted along it
Method: as §3, §4, §5

[5] = 30 mg/kg b.i.d. intragastric, Day 11
[6] = 30 mg/kg b.i.d. intragastric, Day 15
[7] = NVSG mice, oral 30 mg/kg, 4 h after administration

Which results are given for COc1ccc(CN2C3CC2CN(c2ccc(-c4cc(OCC(C)(C)O)cn5ncc(C#N)c45)cn2)C3)cn1 [Selpercatinib, selpercatinib, reference compound]?
Volume of graft tumor (mean ± SD) [1, 5]: 19.68 ± 17.97 mm^3; Volume of graft tumor (mean ± SD) [1, 6]: 13.59 ± 12.43 mm^3; pIC50 (FGFR2 V564F): 7.89; concentration at 4 h ([2]; brain, NVSG mice, oral 30 mg/kg, 4 h after administration, read-out: Concentration of compound in brain): 88.3 ng/g; concentration at 4 h ([2]; liver, NVSG mice, oral 30 mg/kg, 4 h after administration, read-out: Concentration of compound in liver): 12900 ng/g; concentration at 4 h ([2]; lung, NVSG mice, oral 30 mg/kg, 4 h after administration, read-out: Concentration of compound in lung): 7190 ng/g; concentration at 4 h ([2]; plasma, NVSG mice, oral 30 mg/kg, 4 h after administration, read-out: Concentration of compound in plasma): 14.6 µg/mL; CL ([3]; p.o. 5 mg/kg): 0.456 L/h/kg; Vz ([3]; p.o. 5 mg/kg): 2.039 L/kg; F [3]: 66.07%; AUC(0-inf) ([3]; iv, i.v. 1 mg/kg): 3.33 µg·h/mL; AUC(0-t) ([3]; iv, i.v. 1 mg/kg): 3.31 µg·h/mL; Cmax ([3]; iv, i.v. 1 mg/kg): 1.26 µg/mL; Tmax ([3]; iv, i.v. 1 mg/kg): 0.083 h; clearance ([3]; iv, i.v. 1 mg/kg): 0.306 L/h/kg; Vd ([3]; iv, i.v. 1 mg/kg): 1.61 L/kg; AUC(0-inf) ([3]; po, p.o. 5 mg/kg): 11 µg·h/mL; AUC(0-t) ([3]; po, p.o. 5 mg/kg): 10.9 µg·h/mL; Cmax ([3]; po, p.o. 5 mg/kg): 1.04 µg/mL; Tmax ([3]; po, p.o. 5 mg/kg): 2.67 h; half-life ([3]; po, p.o. 5 mg/kg): 3.11 h; pIC50 (Ba/F3 KIF5B-RET cells): 8.08; pIC50 (Ba/F3 RET-M918T cells): 7.69; pIC50 (FGFR3 V555M): 6.73; pIC50 (FGFR1): 6.52; pIC50 (FGFR2): 7.69; pIC50 [4]: < 6.00; pIC50 (FGFR2 N549H): 8.03; pIC50 (FGFR2 K641R): 7.95; pIC50 (FGFR1 V561M): 5.71

With [2H]C([2H])([2H])N1CCN(c2cc(-c3ccc(N4CC5CC(C4)N5Cc4ccc(OC)nc4)nc3)c3c(C#N)cnn3c2)CC1 [Compound 94] as the compound, how does the “Volume of graft tumor (mean ± SD)” value ([1]; 30 mg/kg b.i.d. intragastric, Day 0) read?
Its value is 96.85 ± 2.24 mm^3.

And the “Volume of graft tumor (mean ± SD)” value [1, 5]?
Its value is 12.19 ± 27.25 mm^3.

What about the “Volume of graft tumor (mean ± SD)” value [1, 6] of the same compound?
Its value is 8.00 ± 17.89 mm^3.

And the “Volume of graft tumor (mean ± SD)” value ([1]; 30 mg/kg q.d. intragastric, Day 0)?
Its value is 96.95 ± 1.48 mm^3.

And the “Volume of graft tumor (mean ± SD)” value ([1]; 30 mg/kg q.d. intragastric, Day 11)?
Its value is 14.57 ± 23.42 mm^3.

And the “Volume of graft tumor (mean ± SD)” value ([1]; 30 mg/kg q.d. intragastric, Day 15)?
Its value is 9.73 ± 16.31 mm^3.

What about the “Volume of graft tumor (mean ± SD)” value ([1]; 60 mg/kg q.d. intragastric, Day 0) of the same compound?
Its value is 96.76 ± 2.34 mm^3.

What about the “Volume of graft tumor (mean ± SD)” value ([1]; 60 mg/kg q.d. intragastric, Day 11) of the same compound?
The value was 6.11 ± 14.98 mm^3.

And the “Volume of graft tumor (mean ± SD)” value ([1]; 60 mg/kg q.d. intragastric, Day 15)?
Its value is 3.75 ± 9.19 mm^3.

And the pIC50 (FGFR2 V564F)?
The pIC50 was 8.45.

What about the “Concentration of compound in brain” value [2, 7] of the same compound?
The value was 2883.99 ng/g.

What about the “Concentration of compound in liver” value [2, 7] of the same compound?
Its value is 70199.89 ng/g.

And the “Concentration of compound in lung” value [2, 7]?
Its value is 87220.49 ng/g.

What about the “Concentration of compound in plasma” value [2, 7] of the same compound?
The value was 3.17497 µg/mL.

What about the “Concentration distribution in tissues of target organs of mice compared with Loxo-292” value ([2]; after oral administration) of the same compound?
The value was “higher concentration distribution”.

And the CL ([3]; p.o. 5 mg/kg)?
Its CL is 3.56758 L/h/kg.

And the Vz ([3]; p.o. 5 mg/kg)?
Its Vz is 68.49214 L/kg.

And the F [3]?
Its F is 98.02%.

And the “Clearance time in rats compared with Loxo-292” value ([3]; after oral administration)?
Its value is “took longer to be cleared”.

What about the “Bioavailability compared with Loxo-292” value ([3]; after oral administration, rats) of the same compound?
Its value is “higher bioavailability”.

And the AUC(0-inf) ([3]; iv, i.v. 1 mg/kg)?
Its AUC(0-inf) is 0.335 µg·h/mL.

And the AUC(0-t) ([3]; iv, i.v. 1 mg/kg)?
Its AUC(0-t) is 0.24 µg·h/mL.

What about the Cmax ([3]; iv, i.v. 1 mg/kg) of the same compound?
The Cmax was 0.0423 µg/mL.

What about the Tmax ([3]; iv, i.v. 1 mg/kg) of the same compound?
Its Tmax is 0.08 h.

What about the clearance ([3]; iv, i.v. 1 mg/kg) of the same compound?
The clearance was 3.07 L/h/kg.

What about the half-life ([3]; iv, i.v. 1 mg/kg) of the same compound?
Its half-life is 13.3 h.

And the Vd ([3]; iv, i.v. 1 mg/kg)?
The Vd was 57.6 L/kg.

And the AUC(0-inf) ([3]; po, p.o. 5 mg/kg)?
Its AUC(0-inf) is 1.64 µg·h/mL.

What about the AUC(0-t) ([3]; po, p.o. 5 mg/kg) of the same compound?
Its AUC(0-t) is 1.02 µg·h/mL.

What about the Cmax ([3]; po, p.o. 5 mg/kg) of the same compound?
Its Cmax is 0.0639 µg/mL.

And the Tmax ([3]; po, p.o. 5 mg/kg)?
Its Tmax is 4 h.

What about the half-life ([3]; po, p.o. 5 mg/kg) of the same compound?
Its half-life is 15.8 h.

What about the pIC50 (Ba/F3 KIF5B-RET cells) of the same compound?
The pIC50 was 7.70.

What about the pIC50 (Ba/F3 RET-M918T cells) of the same compound?
Its pIC50 is 7.77.

What about the pIC50 (FGFR3 V555M) of the same compound?
The pIC50 was 7.13.

And the pIC50 (FGFR1)?
Its pIC50 is 6.52.

And the pIC50 (FGFR2)?
The pIC50 was 7.58.

And the pIC50 [4]?
The pIC50 was 6.33.

And the pIC50 (FGFR2 N549H)?
Its pIC50 is 8.66.

What about the pIC50 (FGFR2 K641R) of the same compound?
Its pIC50 is 8.13.

What about the pIC50 (FGFR1 V561M) of the same compound?
Its pIC50 is 5.85.
